Reference: patent US9382197B2, “Substituted hydroxamic acids and uses thereof” (Millennium Pharmaceuticals, Inc., priority 2010, dated 2016)

Molecular target: T1, purified human HDAC6 (Homo sapiens, UniProt Q9UBN7)
T1 construct: purchased BPS Bioscience 5006
T1 sequence (Q9UBN7 1-1215): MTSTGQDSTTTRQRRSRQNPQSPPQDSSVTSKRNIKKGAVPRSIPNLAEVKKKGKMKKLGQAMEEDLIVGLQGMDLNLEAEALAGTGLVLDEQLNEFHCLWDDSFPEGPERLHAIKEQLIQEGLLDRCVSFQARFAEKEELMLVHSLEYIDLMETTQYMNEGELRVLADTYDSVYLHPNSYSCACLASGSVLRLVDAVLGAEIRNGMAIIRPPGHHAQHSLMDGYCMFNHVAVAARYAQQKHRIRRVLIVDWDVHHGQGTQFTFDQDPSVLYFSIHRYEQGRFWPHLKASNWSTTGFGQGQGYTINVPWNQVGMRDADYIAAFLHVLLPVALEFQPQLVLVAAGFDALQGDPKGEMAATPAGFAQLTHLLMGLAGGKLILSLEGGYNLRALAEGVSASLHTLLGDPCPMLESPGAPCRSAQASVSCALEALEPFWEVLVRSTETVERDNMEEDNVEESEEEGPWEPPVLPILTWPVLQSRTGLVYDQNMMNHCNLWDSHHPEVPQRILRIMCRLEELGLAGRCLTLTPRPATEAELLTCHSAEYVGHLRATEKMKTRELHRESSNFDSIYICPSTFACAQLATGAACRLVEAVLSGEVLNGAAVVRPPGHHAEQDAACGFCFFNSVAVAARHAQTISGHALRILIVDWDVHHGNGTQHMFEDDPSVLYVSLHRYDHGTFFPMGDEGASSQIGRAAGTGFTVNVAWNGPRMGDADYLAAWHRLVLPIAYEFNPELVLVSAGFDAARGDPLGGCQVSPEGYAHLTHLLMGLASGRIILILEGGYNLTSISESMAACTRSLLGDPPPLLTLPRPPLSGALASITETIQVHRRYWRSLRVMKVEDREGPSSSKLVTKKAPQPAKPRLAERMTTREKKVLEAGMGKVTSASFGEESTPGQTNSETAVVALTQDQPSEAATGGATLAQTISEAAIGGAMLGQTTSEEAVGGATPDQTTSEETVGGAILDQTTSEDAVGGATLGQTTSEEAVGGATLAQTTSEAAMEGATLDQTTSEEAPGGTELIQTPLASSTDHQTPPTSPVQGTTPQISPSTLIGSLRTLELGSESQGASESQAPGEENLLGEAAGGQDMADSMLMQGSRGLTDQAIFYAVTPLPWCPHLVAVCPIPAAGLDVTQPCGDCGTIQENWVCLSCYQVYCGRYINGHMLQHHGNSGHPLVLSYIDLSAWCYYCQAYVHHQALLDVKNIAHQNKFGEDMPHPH
Experiment: HDAC6 Enzyme Assay
Assay type: biochemical
Conditions: bin: greater than 500 nM and less than 1 μM (lower bound in nM, upper bound in μM)
Outline: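 Purified human HDAC6 incubated 1 h at 30 °C with Ac-Arg-Gly-Lys(Ac)-AMC and compound; trichostatin A stop, trypsin release of AMC, fluorescence Ex 340/Em 460 nm. IC50 from concentration–response relative to DMSO.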

| SMILES | IC50 [nM] |
| --- | --- |
| CC(NC(=O)NC(C)(C)C)c1ccc(C(=O)NO)cc1 (stereo not drawn) [Compound I-339, 4-(1-{[(tert-butylamino)carbonyl]amino}ethyl)-N-hydroxybenzamide] | 500 to 1000 |
| C[C@@H](NS(=O)(=O)c1ccc(C(F)(F)F)cc1)c1ccc(C(=O)NO)cc1 [Compound I-351, N-hydroxy-4-[(1R)-1-({[4-(trifluoromethyl)phenyl]sulfonyl}amino)ethyl]benzamide] | 500 to 1000 |

Same assay, conditions: bin: greater than 1 μM

| SMILES | IC50 [nM] |
| --- | --- |
| C[C@@H](NC(=O)NC(C)(C)C)c1cccc(C(=O)NO)c1 [Compound I-320, 3-((1R)-1-{[(tert-butylamino)carbonyl]amino}ethyl)-N-hydroxybenzamide] | > 1000 |
| O=C(NO)c1ccc([C@@H](NC(=O)C23CC4CC(CC(C4)C2)C3)C2CC2)cc1 [Compound I-322, N-((S)-cyclopropyl{4-[(hydroxyamino)carbonyl]phenyl}methyl)adamantane-1-carboxamide] | > 1000 |
| CC(C)C(NC(=O)c1ccc(-c2ccccc2)cc1)c1cccc(C(=O)NO)c1 (stereo not drawn) [Compound I-323, N-(1-{3-[(hydroxyamino)carbonyl]phenyl}-2-methylpropyl)biphenyl-4-carboxamide] | > 1000 |
| CC(NC(=O)c1cc2oc(-c3ccc(C(C)(C)C)cc3)cc2n1C)c1cccc(C(=O)NO)c1 (stereo not drawn) [Compound I-324, 2-(4-tert-butylphenyl)-N-(1-{3-[(hydroxyamino)carbonyl]phenyl}ethyl)-4-methyl-4H-furo[3,2-b]pyrrole-5-carboxamide] | > 1000 |
| Cc1noc(C)c1C(=O)NC(C)c1ccc(C(=O)NO)cc1 (stereo not drawn) [Compound I-326, N-(1-{4-[(hydroxyamino)carbonyl]phenyl}ethyl)-3,5-dimethylisoxazole-4-carboxamide] | > 1000 |
| CC(NC(=O)CC(C)(C)C)c1cccc(C(=O)NO)c1 (stereo not drawn) [Compound I-333, 3-{1-[(3,3-dimethylbutanoyl)amino]ethyl}-N-hydroxybenzamide] | > 1000 |
| Cn1c(C(=O)NC(c2ccc(C(=O)NO)cc2)C(C)(C)C)cc2oc(-c3ccc(C(C)(C)C)cc3)cc21 (stereo not drawn) [Compound I-337, 2-(4-tert-butylphenyl)-N-(1-{4-[(hydroxyamino)carbonyl]phenyl}-2,2-dimethylpropyl)-4-methyl-4H-furo[3,2-b]pyrrole-5-carboxamide] | > 1000 |
| C[C@@H](NC(=O)NC12CC3CC(CC(C3)C1)C2)c1cccc(C(=O)NO)c1 [Compound I-343, 3-[(1R)-1-({[1-adamantylamino]carbonyl}amino)ethyl]-N-hydroxybenzamide] | > 1000 |
| CC(C)(C)C(NC(=O)Cc1csc2ccc(Cl)cc12)c1ccc(C(=O)NO)cc1 (stereo not drawn) [Compound I-345, 4-(1-{[(5-chloro-1-benzothien-3-yl)acetyl]amino}-2,2-dimethylpropyl)-N-hydroxybenzamide] | > 1000 |

Same assay, conditions: purified human HDAC6, substrate Ac-Arg-Gly-Lys(Ac)-AMC, 1 hour at 30° C.; reported as bins

| SMILES | IC50 [nM] |
| --- | --- |
| CC(C)(C)C(NC(=O)c1c[nH]c2ccccc12)c1ccc(C(=O)NO)cc1 (stereo not drawn) [Compound I-319, N-(1-{4-[(hydroxyamino)carbonyl]phenyl}-2,2-dimethylpropyl)-1H-indole-3-carboxamide] | < 100 |
| C[C@@H](NC(=O)c1cc2ccccc2s1)c1cccc(C(=O)NO)c1 [Compound I-321, N-((1R)-1-{3-[(hydroxyamino)carbonyl]phenyl}ethyl)-1-benzothiophene-2-carboxamide] | < 100 |
| CC(NC(=O)c1ccc2ccccc2c1)c1ccc(C(=O)NO)cc1 (stereo not drawn) [Compound I-327, N-(1-{4-[(hydroxyamino)carbonyl]phenyl}ethyl)-2-naphthamide] | < 100 |
| CC(C)[C@@H](NC(=O)C12CC3CC(CC(C3)C1)C2)c1ccc(C(=O)NO)cc1 [Compound I-328, N-((1R)-1-{4-[(hydroxyamino)carbonyl]phenyl}-2-methylpropyl)adamantane-1-carboxamide] | < 100 |
| Cc1ccc2[nH]c(C(=O)NC(c3ccc(C(=O)NO)cc3)C(C)(C)C)c(C)c2c1 (stereo not drawn) [Compound I-329, N-(1-{4-[(hydroxyamino)carbonyl]phenyl}-2,2-dimethylpropyl)-3,5-dimethyl-1H-indole-2-carboxamide] | < 100 |
| C[C@@H](NC(=O)c1cc2ccccc2n1C)c1cccc(C(=O)NO)c1 [Compound I-330, N-((1R)-1-{3-[(hydroxyamino)carbonyl]phenyl}ethyl)-1-methyl-1H-indole-2-carboxamide] | 100 to 500 |
| CC(C)C(NC(=O)c1cccc2ccccc12)c1ccc(C(=O)NO)cc1 (stereo not drawn) [Compound I-331, N-(1-{4-[(hydroxyamino)carbonyl]phenyl}-2-methylpropyl)-1-naphthamide] | 100 to 500 |
| CC(C)[C@@H](NC(=O)c1cc2oc(-c3ccccc3)cc2n1C)c1ccc(C(=O)NO)cc1 [Compound I-332, N-((1R)-1-{4-[(hydroxyamino)carbonyl]phenyl}-2-methylpropyl)-4-methyl-2-phenyl-4H-furo[3,2-b]pyrrole-5-carboxamide] | < 100 |
| CC(NC(=O)Nc1cc(C(F)(F)F)ccc1F)c1ccc(C(=O)NO)cc1 (stereo not drawn) [Compound I-334, 4-{1-[({[2-fluoro-5-(trifluoromethyl)phenyl]amino}carbonyl)amino]ethyl}-N-hydroxybenzamide] | < 100 |
| O=C(NO)c1ccc([C@H](NC(=O)C23CC4CC(CC(C4)C2)C3)c2ccccc2)cc1 [Compound I-336, N-[(R)-{4-[(hydroxyamino)carbonyl]phenyl}(phenyl)methyl]adamantane-1-carboxamide] | 100 to 500 |
| CC(NS(=O)(=O)Cc1ccccc1)c1ccc(C(=O)NO)cc1 (stereo not drawn) [Compound I-338, 4-{1-[(benzylsulfonyl)amino]ethyl}-N-hydroxybenzamide] | 100 to 500 |
| CC(C)[C@@H](NC(=O)c1ccc(-c2ccccc2)cc1)c1ccc(C(=O)NO)cc1 [Compound I-341, N-((1R)-1-{4-[(hydroxyamino)carbonyl]phenyl}-2-methylpropyl)biphenyl-4-carboxamide] | < 100 |
| Cc1ccc2[nH]c(C(=O)NC(C)c3cccc(C(=O)NO)c3)cc2c1 (stereo not drawn) [Compound I-342, N-(1-{3-[(hydroxyamino)carbonyl]phenyl}ethyl)-5-methyl-1H-indole-2-carboxamide] | 100 to 500 |
| CC(C)C(NC(=O)C1CCCCC1)c1ccc(C(=O)NO)cc1 (stereo not drawn) [Compound I-344, 4-{1-[(cyclohexylcarbonyl)amino]-2-methylpropyl}-N-hydroxybenzamide] | 100 to 500 |
| COc1ccc(C(=O)NC(c2ccc(C(=O)NO)cc2)C(C)C)cc1 (stereo not drawn) [Compound I-346, N-(1-{4-[(hydroxyamino)carbonyl]phenyl}-2-methylpropyl)-4-methoxybenzamide] | < 100 |
| CC(NC(=O)C1CC=CCC1)c1ccc(C(=O)NO)cc1 (stereo not drawn) [Compound I-348, 4-{1-[(cyclohex-3-en-1-ylcarbonyl)amino]ethyl}-N-hydroxybenzamide] | < 100 |
| CC(NC(=O)c1ccc2occc2c1)c1ccc(C(=O)NO)cc1 (stereo not drawn) [Compound I-349, N-(1-{4-[(hydroxyamino)carbonyl]phenyl}ethyl)-1-benzofuran-5-carboxamide] | < 100 |
| CC(NC(=O)c1ccc(C(C)(C)C)cc1)c1ccc(C(=O)NO)cc1 (stereo not drawn) [Compound I-350, 4-tert-butyl-N-(1-{4-[(hydroxyamino)carbonyl]phenyl}ethyl)benzamide] | < 100 |
| COc1ccc(C(=O)NC(c2ccc(C(=O)NO)cc2)C(C)(C)C)cc1 (stereo not drawn) [Compound I-352, N-(1-{4-[(hydroxyamino)carbonyl]phenyl}-2,2-dimethylpropyl)-4-methoxybenzamide] | 100 to 500 |
| CC(NC(=O)c1cn(C)c2ccccc12)c1cccc(C(=O)NO)c1 (stereo not drawn) [Compound I-353, N-(1-{3-[(hydroxyamino)carbonyl]phenyl}ethyl)-1-methyl-1H-indole-3-carboxamide] | 100 to 500 |
| CC(C)[C@@H](NC(=O)NC12CC3CC(CC(C3)C1)C2)c1ccc(C(=O)NO)cc1 [Compound I-354, 4-[(1R)-1-({[1-adamantylamino]carbonyl}amino)-2-methylpropyl]-N-hydroxybenzamide] | < 100 |
| CC(C)(C)C(NC(=O)c1ccc(-c2ccccc2)cc1)c1ccc(C(=O)NO)cc1 (stereo not drawn) [Compound I-355, N-(1-{4-[(hydroxyamino)carbonyl]phenyl}-2,2-dimethylpropyl)biphenyl-4-carboxamide] | 100 to 500 |
